# Reference: article PMC12736791, “Co-Amorphous Systems Based on Dihydroquercetin and L-Lysine: Synthesis and Evaluation” (Pharmaceutics, 2025)
# Where two headings read alike, the source gives them in different places.
# Tests used:
# [1] = Solubility studies, pharmacopoeial descriptive terms; assay type: physicochemical; details: in water at room temperature
# Procedure: The analysis was performed in accordance with the pharmacopoeial monograph of the State Pharmacopoeia of the Russian Federation XV, which is equivalent to the terms of the Pharmacopoeia of the Eurasian Economic Union and the European Pharmacopeia 11.5 at ambient conditions.
# A measured amount of solvent was added to the suspension of the substance, and the mixture was continuously shaken for 1 min and placed in a thermostat set at a temperature of 24.5–25.5 °C for 15 min. If the substance had not completely dissolved, the shaking process was repeated for another minute, and the solution was kept in the thermostat for another 15 min period at the same temperature.
# HEK293 cells = assay: Cytotoxicity assay (CCK-8), HEK293; assay type: cell-based, human; details: HEK293, 24 h
# Procedure: (§1) The cells were cultured in a medium containing DMEM:FBS:MEM:P/S in a ratio of 88:10:1:1 for Caco-2 (immortalized human colorectal adenocarcinoma) cells, and DMEM:FBS:P/S in a ratio of 89:10:1 for HUVEC (Human umbilical vein endothelial cells), 3T3 (mouse embryonic fibroblasts), and HEK293 (immortalized human embryonic kidney) cell lines. The cell cultures were maintained in 100 mm diameter Petri dishes within a CelMate® CO2 Incubator (Esco Lifesciences Group, Singapore) at 37 °C in an atmosphere containing 5% carbon dioxide and a relative humidity of 95%. The culture medium was refreshed every 24 h.
# (§2) To determine cell concentration, 1.0 mL of a trypsin solution containing EDTA, pre-warmed to 37 °C, was added to a Petri dish and incubated for up to 5 min. […] Subsequently, 100 µL of the solution was introduced into the Neubauer chamber XB.K.25 (QUIJING, Shanghai, China), and the concentration (cells/mL) was calculated using the following formula:(1) C=Ncell/Nsquares×[…], where Ncell represents the number of cells counted in the Neubauer chamber field and Nsquares represents the number of squares in the Neubauer chamber used for concentration calculation. […]
# (§3) The resulting solutions were analyzed on a microplate spectrophotometer Eon (BioTek, Winooski, VT, USA) at the maximum absorption of the reduced form of CCK-8, measured at 450 nm. […]
# Caco-2 cells = assay: Cytotoxicity assay (CCK-8), Caco-2; assay type: cell-based, human; details: Caco-2, 24 h
# Procedure: as §1, §2, §3
# HUVEC cells = assay: Cytotoxicity assay (CCK-8), HUVEC; assay type: cell-based, human; details: 24 h
# Procedure: as §1, §2, §3
# 3T3 cells = assay: Cytotoxicity assay (CCK-8), 3T3; assay type: cell-based, mouse
# Procedure: as §1, §2, §3
# [2] = design: method as in earlier work; details: water, room temperature; European Pharmacopoeia 11.5; cited from earlier work
# [3] = design: method as in PMID 38139995; details: unmodified flavonoid; cited from earlier work
compound,measurement,setting,value
"O=C1c2c(O)cc(O)cc2OC(c2ccc(O)c(O)c2)C1O (centres unmarked) [DHQraw, 2,3-dihydro-3,5,7-trihydroxy-2-(3,4-dihydroxyphenyl)-4H-1-benzopyran-4-one]",Solubility (pharmacopoeial descriptive term),[1],very slightly soluble
same,IC50,"HEK293 cells; Homo sapiens, read-out: IC50",39 µg/mL
same,IC50,"Caco-2 cells; Homo sapiens, read-out: IC50",65 µg/mL
same,IC50,"HUVEC cells; Homo sapiens, read-out: IC50",88 µg/mL
same,IC50,"3T3 cells; Mus musculus, NIH3T3, 3T3, 24 h, read-out: IC50",96 µg/mL
same,Solubility (pharmacopoeial descriptive term),[2],very slightly soluble
NCCCC[C@H](N)C(=O)O [LYSlyo],IC50,HEK293 cells,1490 µg/mL
same,IC50,Caco-2 cells,538 µg/mL
same,IC50,HUVEC cells,826 µg/mL
same,IC50,"3T3 cells; 3T3, 24 h",above the maximum concentration
O=c1c(-c2ccc(O)cc2)coc2cc(O)cc(O)c12 [genistein],Solubility of genistein,[3],0.05 ± 0.01 µg/mL
